# Where a chain is given by its changes, count along the chain named. “And” between values parts separate entries of the source, which are not always exact repeats. Identical values can stand only once. Where a SMILES comes first, the peptide text is derived from it. Where no end group is shown, it is not given here. The star is where a group is joined. Palmitoyl = CCCCCCCCCCCCCCCC(=O)*
# Experiments:
# PAR1 [1] = target: T1, PAR1 (Homo sapiens, UniProt P25116); assay: InsP formation in COS7 cells transiently transfected with wild-type PAR1; type: cell-based
# T1 construct: expressed in transfected cells
# T1 sequence (P25116 22-425): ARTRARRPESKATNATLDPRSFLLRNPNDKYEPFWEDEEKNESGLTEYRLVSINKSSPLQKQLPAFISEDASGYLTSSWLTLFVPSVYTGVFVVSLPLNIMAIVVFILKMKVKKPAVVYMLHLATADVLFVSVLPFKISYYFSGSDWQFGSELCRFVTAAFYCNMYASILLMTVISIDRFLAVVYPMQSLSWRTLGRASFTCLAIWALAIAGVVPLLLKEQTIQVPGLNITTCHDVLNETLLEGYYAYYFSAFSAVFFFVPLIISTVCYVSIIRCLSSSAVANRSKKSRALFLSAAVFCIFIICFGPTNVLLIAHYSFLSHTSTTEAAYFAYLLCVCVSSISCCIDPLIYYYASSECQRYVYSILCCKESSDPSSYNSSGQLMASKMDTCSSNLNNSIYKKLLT
# [2] = tested on: MDA-MB-231 breast cancer cells; assay: Chemoinvasion of MDA-MB-231 breast cancer cells (Transwell); type: cell-based, human; conditions: NIH3T3 conditioned medium
# Experimental: Experiments were performed in order to determine if application of pepducins based on the i3 loops of PAR1, PAR2, or PAR4 would inhibit migration and invasion of breast cancer cells. It was determined that the highly invasive MDA-MB-231 breast cancer cell line expressed very high levels of functional PAR1, PAR2 and PAR4. […] Pepducins were added with NIH3T3 Conditioned medium (CM) to the bottom well of a Transwell apparatus.
# PAR4 [3] = target: T2, PAR4 (Homo sapiens, UniProt Q96RI0); assay: InsP formation in COS7 cells expressing PAR4; type: cell-based; set-up: expressed in transfected cells; host or cells: COS7, transient
# T2 sequence (Q96RI0 18-385): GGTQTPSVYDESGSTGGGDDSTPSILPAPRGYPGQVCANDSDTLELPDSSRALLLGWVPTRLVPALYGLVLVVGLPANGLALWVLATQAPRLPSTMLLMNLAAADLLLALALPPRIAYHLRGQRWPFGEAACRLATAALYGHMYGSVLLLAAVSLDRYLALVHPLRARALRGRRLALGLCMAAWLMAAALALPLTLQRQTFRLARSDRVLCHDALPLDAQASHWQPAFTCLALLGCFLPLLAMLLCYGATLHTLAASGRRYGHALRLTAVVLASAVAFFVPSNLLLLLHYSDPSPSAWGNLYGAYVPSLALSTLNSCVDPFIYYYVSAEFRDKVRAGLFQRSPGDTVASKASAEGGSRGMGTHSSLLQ
# delta377 PAR1 = assay: InsP formation in COS7 cells expressing delta377 (C-tail deleted) PAR1 mutant; type: cell-based, human; conditions: relative to wild type PAR1
# murine platelets (PAR4) = assay: Aggregation of washed murine platelets; conditions: read-out: EC50 of aggregation of murine platelets
# PAR1 [4] = target: T1, PAR1; assay: InsP formation (PLC-β) in Rat1 fibroblasts expressing human PAR1; type: cell-based; conditions: 0.1 nM thrombin
# S309P PAR1 = target: T3, S309P PAR1 (Homo sapiens, UniProt P25116, S309P); assay: InsP formation in COS7 cells expressing S309P PAR1 mutant; type: cell-based; conditions: relative to wild type PAR1
# T3 construct: expressed in transfected cells; host or cells: COS7, transient
# T3 sequence (P25116 22-425 S309P): T1 sequence (P25116 22-425) with S288P
# PAR1 [5] = target: T1, PAR1; assay: Inhibition of PAR1-dependent platelet Ca2+ signal; type: cell-based; conditions: SFLLRN (or thrombin) after peptide pre-treatment
# Experimental: (§1) Platelet Ca2+ measurements were performed as in Example 1.
# (§2) The integrated Ca^2+ response for the individual treatments are relative to the full Ca^2+ responses for each agonist (100%) recorded in the absence of P4pal-10 (top trace).
# [6] = tested on: thrombin receptors on human platelets; assay: Inhibition of thrombin-induced human platelet aggregation; conditions: 3 μM pepducin
# PAR4 [7] = target: T2, PAR4; assay: Inhibition of PAR4-dependent platelet Ca2+ signal (AYPGKF); type: cell-based; conditions: 3 micromolar pepducin; 200 Micromolar AYPGKF
# Experimental: as §1, §2
# PAR4 [8] = target: T2, PAR4; assay: Inhibition of AYPGKF-induced human platelet aggregation; type: cell-based; conditions: AYPGKF
# PAR1 [9] = target: T1, PAR1; assay: Inhibition of SFLLRN-induced human platelet aggregation; type: cell-based; conditions: 3 μM pepducin, 1 min preincubation
# [10] = Tail bleeding time and rebleeding in mice; conditions: 3 μmoles/L i.v.
# [11] = tested on: TXA2, ADP, collagen, or GPIb/IX/V receptors; assay: Inhibition of human platelet aggregation induced by U46619, ADP, collagen or ristocetin; type: cell-based; conditions: 5 μM pepducin, ristocetin
# Description: 84, 1440 (1989)) and von Willebrand factor (GPIb/IX/V) (Savage et al., Cell 94, 657 (1998)) using platelets as the biologically-relevant system.
# P2Y12 ADP receptor = target: T4, P2Y12 ADP receptor (Homo sapiens, UniProt Q9H244); assay: Irreversible aggregation of SFLLRN-activated human platelets (ADP autocrine response); type: cell-based; conditions: 3 μM SFLLRN
# T4 construct: endogenous in cells; host or cells: gel-purified human platelets
# T4 sequence (Q9H244 whole entry): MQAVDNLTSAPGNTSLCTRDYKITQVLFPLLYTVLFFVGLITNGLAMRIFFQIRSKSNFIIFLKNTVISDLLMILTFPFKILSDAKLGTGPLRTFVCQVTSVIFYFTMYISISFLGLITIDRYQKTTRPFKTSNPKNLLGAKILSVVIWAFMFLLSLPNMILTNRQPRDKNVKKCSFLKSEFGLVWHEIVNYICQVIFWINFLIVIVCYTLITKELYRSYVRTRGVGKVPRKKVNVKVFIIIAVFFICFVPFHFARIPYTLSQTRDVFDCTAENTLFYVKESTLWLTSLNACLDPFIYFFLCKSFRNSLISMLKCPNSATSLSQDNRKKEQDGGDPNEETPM
# Description: Recently, the P2Y12 adenosine diphosphate (ADP) receptor was cloned by three independent groups (Hollopeter et al., Nature 409:202 (2001); Zhang et al., J. Biol. Chem. 276:8605 (2001); and Takasaki et al., Mol. Pharmacol. 60:432 (2001)) and shown to be the long-sought after target of the thienopyridine drugs clopidogrel and ticlopidine (Gachet et al., Biochem Pharmacol 40:2683 (1990); Mills et al., Arterioscler Thromb 12:430 (1992)). […] P2Y12 plays such a critical role in thrombus formation because it can modulate the strength of platelet-platelet adhesive interactions via multiple receptors such as PAR1. Inputs from P2Y12 stabilize the critical transition point of platelet-platelet aggregates during the progression from early reversible GPIIb-IIIa-fibrinogen binding to the late phase of irreversible binding to fibrinogen.
# Aggregometry was performed by light scattering.
compound,measurement,setting,value
CCCCCCCCCCCCCCCC(=O)N[C@@H](CCCNC(=N)N)C(=O)N[C@@H](CCSC)C(=O)N[C@@H](CC(C)C)C(=O)N[C@@H](CCCNC(=N)N)C(=O)N[C@@H](CO)C(=O)N[C@@H](CO)C(=O)N[C@@H](C)C(=O)N[C@@H](CCSC)C(=O)N[C@@H](CC(=O)O)C(=O)N[C@@H](CCC(=O)O)C(=O)N[C@@H](CC(N)=O)C(=O)N[C@@H](CO)C(=O)N[C@@H](CCC(=O)O)C(=O)N[C@@H](CCCCN)C(=O)N[C@@H](CCCCN)C(=O)N[C@@H](CCCNC(=N)N)C(=O)N[C@@H](CCCCN)C(=O)N[C@@H](CCCNC(=N)N)C(=O)N[C@@H](C)C(=O)N[C@H](C(=O)N[C@@H](Cc1ccccc1)C(N)=O)[C@@H](C)CC [Pepducin P2pal-21F],activation of PAR1 (InsP),"PAR1 [1]; COS7 cells, FIG. 2G",activated PAR1
same,inhibition of chemoinvasion,[2],90%
same,activation of PAR4 (InsP),PAR4 [3]; COS7 cells,not PAR4
thrombin [reference compound],InsP stimulation of WT PAR1 (100%),PAR1 [1]; 0.1 nM thrombin,9.6 fold
same,full extracellular agonist-stimulated InsP response,PAR4 [3]; 10 nM thrombin,3.1 fold
same,shift of potency on delta377 mutant,delta377 PAR1,22 fold
same,EC50,murine platelets (PAR4),600 pM
same,full PAR1 thrombin response (InsP stimulation) of individual experiments,PAR1 [4],7.6 fold and 9.4 fold and 12.4 fold and 18 fold and 9.5 fold and 5.2 fold
same,loss of efficacy on S309P mutant,S309P PAR1,1.6 fold
same,loss of potency on S309P mutant,S309P PAR1,17 fold
CCCCCCCCCCCCCCCC(=O)N[C@@H](CCCNC(=N)N)C(=O)N[C@@H](CS)C(=O)N[C@@H](CC(C)C)C(=O)N[C@@H](CO)C(=O)N[C@@H](CO)C(=O)N[C@@H](CO)C(=O)N[C@@H](C)C(=O)N[C@H](C(=O)N[C@@H](C)C(=O)N[C@@H](CC(N)=O)C(=O)N[C@@H](CCCNC(=N)N)C(=O)N[C@@H](CO)C(N)=O)C(C)C [Pepducin P1pal-12] (Palmitoyl-RCLSSSAVANRS-NH2),inhibition of PAR1-dependent Ca2+ response,PAR1 [5],effectively inhibits PAR1 activation
same,inhibition of PAR1-dependent Ca2+ response,PAR1 [5]; listed as P1pal12,completely block PAR1 signaling
same,inhibition of aggregation,"[6]; 3 nM thrombin, 1 min",completely blocked aggregation
same,inhibition of aggregation,[6]; 20 nM thrombin,not appreciably blocked
same,inhibition of PAR4-dependent Ca2+ response,PAR4 [7],does not block PAR4 activation
same,inhibition of PAR4-dependent platelet aggregation,PAR4 [8],does not inhibit PAR4-dependent platelet aggregation
same,agonist activity in platelet aggregation,human platelets,loss of stimulatory activity
same,aggregation blocked,PAR1 [9],75-95%
same,effect on tail-bleeding time,[10],did not prolong tail-bleeding time
same,mean total bleeding time,[10],95 s
same,re-bleeding / unstable haemostasis,[10],did not prolong tail-bleeding time or result in unstable haemostasis
same,re-bleeding / unstable haemostasis,[10]; listed as P1pal12,not observed
same,block of aggregation by ligands of other platelet receptors,[11],did not block aggregation
"Y12pal-24: pepducin based on the i3-loop of P2Y12; peptide KELYRS YVRTRGVGKVPRKKVNVF (SEQ ID NO:34) (KELYRSYVRTRGVGKVPRKKVNVF; also: palmitoyl lipid, position not given here) [Pepducin Y12pal-24]",inhibition of irreversible platelet aggregation,"P2Y12 ADP receptor; 0, 1, 3, or 10 μM pepducin",effective inhibitor of irreversible platelet aggregation
same,efficacy of inhibition compared with apyrase,P2Y12 ADP receptor; 10 μM pepducin,equivalent in efficacy as addition of saturating amounts of apyrase
same,agonist activity in platelet aggregation,human platelets,no agonist activity
"CCCCCCCCCCCCCCCC(=O)N[C@@H](CCCCN)C(=O)N[C@@H](CCCCN)C(=O)N[C@@H](CO)C(=O)N[C@@H](CCCNC(=N)N)C(=O)N[C@@H](C)C(=O)N[C@@H](CC(C)C)C(=O)N[C@@H](Cc1ccccc1)C(N)=O [Pepducin P1pal-7, Pal-KKSRALF] (Palmitoyl-KKSRALF-NH2)",inhibition of chemoinvasion,[2],30%
same,agonist activity in platelet aggregation,human platelets,loss of stimulatory activity
